From patent publication US8314215B2, “Mild chemically cleavable linker system” (The Board of Trustees of the Leland Stanford Junior …, priority 2006, dated 2012)

Experiments:
[1] = Cleavage of probe by incubation with Na2S2O4, LC-MS analysis; type: physicochemical; details: 100 mM Na2S2O4, after 30 minutes
Method: We initially tested the cleavage of SV1 (shown in FIG. 3) by incubation with 100 mM Na2S2O4. After 30 minutes full cleavage of SV1 into the two aniline fragments 3 and 4 (FIG. 3) was observed using LC-MS analysis.

Cathepsin B = molecular target: T1, Cathepsin B (Rattus norvegicus, UniProt P00787); experiment: Proteases targeted by SV1 after chemoselective release from immobilized streptavidin, LC-MS/MS; type: biochemical; details: rat liver homogenate, SV1 10 μM 2 h
T1 construct: from tissue; host or cells: rat liver homogenate
Method: (§1) Rat liver homogenate (20 mg of total protein) in reaction buffer was incubated with SV1 (10 μM) for 2 h. Unreacted probe was removed by filtration over a PD10 column (Amersham Bioscience) and the eluate (in PBS buffer) was shaken with immobilized streptavidin slurry (20 μL) for 1 h. The streptavidin beads were subsequently washed with PBS buffer containing 1M NaCl, 0.1% SDS and 10% EtOH (3× each). Proteases labeled by the probe were cleaved off with Na2S2O4 using the above-described procedure. The pooled supernatant was denatured by incubating with 1 volume of 12 M urea. Next, disulfide bonds were reduced with DTT (10 mM, 60 minutes) and free cysteines were capped with iodoacetamide (40 mM, 60 minutes). Unreacted iodoacetamide was neutralized by addition of an equal amount of DTT and the concentration of urea was lowered to 2 M by addition of water. Trypsin digestion was performed overnight at 37° C. (0.1 μg of trypsin). Digestion was stopped by addition of formic acid (5% final concentration) and digested samples were desalted using a C18 Zip-Tip (Millipore) prior to LC/MS-MS analysis. Data was analyzed by the Sequest algorithm (Novatia) and evaluated by Scaffold (Proteome Software Inc.). Peptides with probability value>95% (in Scaffold) were considered positive hits.
(§2) Although the optimized release of probe-labeled proteins from streptavidin using dithionite is slightly lower in efficiency than under denaturing conditions, this method is likely to result in less background signals leading to easier identification of the target proteases. In addition the direct on-bead cleavage method using a mass spectrometry-compatible buffer allows direct in solution digestion of samples followed by MS analysis. To confirm these issues we analyzed the samples in FIG. 2 by direct solution digestion with trypsin followed by LC-MS/MS analysis of all peptide products. This analysis identified multiple peptides from each of the expected cathepsin proteases without any contamination by background proteins (Table 1). […] A more comprehensive and detailed analysis is reported in Fonović et al., Proteomic evaluation of chemically cleavable activity based probes,” Mol. and Cell Proteomics Manuscript M700-124-MCP200 (published online Jul. 5, 2007).

Cathepsin C = molecular target: T2, Cathepsin C (Rattus norvegicus, UniProt P80067); experiment: as above; type: biochemical; details: rat liver homogenate, SV1 10 μM 2 h
T2 construct: from tissue; host or cells: rat liver homogenate
Method: as §1, §2

Cathepsin H = molecular target: T3, Cathepsin H (Rattus norvegicus, UniProt P00786); experiment: as above; type: biochemical; details: rat liver homogenate, SV1 10 μM 2 h
T3 construct: from tissue; host or cells: rat liver homogenate
Method: as §1, §2

Cathepsin Z = molecular target: T4, Cathepsin Z (Rattus norvegicus, UniProt Q9R1T3); experiment: as above; type: biochemical; details: rat liver homogenate, SV1 10 μM 2 h
T4 construct: from tissue; host or cells: rat liver homogenate
Method: as §1, §2

T3 sequence (P00786 96-333): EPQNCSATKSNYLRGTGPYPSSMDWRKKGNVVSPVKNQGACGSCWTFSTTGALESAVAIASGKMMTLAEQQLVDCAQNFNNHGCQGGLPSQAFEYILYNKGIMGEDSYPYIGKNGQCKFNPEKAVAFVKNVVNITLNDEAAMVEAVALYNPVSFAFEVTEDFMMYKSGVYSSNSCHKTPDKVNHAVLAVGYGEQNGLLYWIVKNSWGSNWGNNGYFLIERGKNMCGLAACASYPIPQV
T1 sequence (P00787 80-333): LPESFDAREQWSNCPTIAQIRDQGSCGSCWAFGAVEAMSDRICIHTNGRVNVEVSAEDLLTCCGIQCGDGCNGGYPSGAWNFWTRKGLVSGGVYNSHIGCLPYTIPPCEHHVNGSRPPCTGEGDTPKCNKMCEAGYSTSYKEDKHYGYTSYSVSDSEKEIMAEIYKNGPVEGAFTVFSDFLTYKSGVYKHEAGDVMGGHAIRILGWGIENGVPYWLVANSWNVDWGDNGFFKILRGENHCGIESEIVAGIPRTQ
T4 sequence (Q9R1T3 64-306): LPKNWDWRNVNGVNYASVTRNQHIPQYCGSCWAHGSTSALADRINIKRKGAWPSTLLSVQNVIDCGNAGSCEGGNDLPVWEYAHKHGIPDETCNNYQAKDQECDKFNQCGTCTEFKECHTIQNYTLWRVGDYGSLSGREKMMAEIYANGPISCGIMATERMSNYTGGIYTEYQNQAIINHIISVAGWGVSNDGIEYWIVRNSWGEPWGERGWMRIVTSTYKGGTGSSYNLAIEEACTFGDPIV
T2 sequence (P80067 25-462): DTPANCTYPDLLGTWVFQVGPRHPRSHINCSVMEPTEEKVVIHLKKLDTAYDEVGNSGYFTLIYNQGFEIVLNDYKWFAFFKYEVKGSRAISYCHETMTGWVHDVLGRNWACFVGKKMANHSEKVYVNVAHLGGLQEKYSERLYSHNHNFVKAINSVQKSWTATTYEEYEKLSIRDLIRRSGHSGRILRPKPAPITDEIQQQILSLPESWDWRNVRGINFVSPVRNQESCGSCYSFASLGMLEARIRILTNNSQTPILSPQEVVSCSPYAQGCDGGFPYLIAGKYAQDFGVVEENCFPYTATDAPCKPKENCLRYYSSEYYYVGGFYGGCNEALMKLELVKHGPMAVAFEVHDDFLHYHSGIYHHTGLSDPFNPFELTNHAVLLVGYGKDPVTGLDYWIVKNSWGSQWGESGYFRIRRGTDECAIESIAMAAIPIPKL

SMILES: CCOC(=O)[C@H]1O[C@@H]1C(=O)N[C@@H](CC(C)C)C(=O)N[C@@H](Cc1ccc(O)cc1)C(=O)NCCc1ccc(O)c(N=Nc2ccc(C(=O)N[C@@H](CCCCNC(=O)CCCC[C@@H]3SC[C@@H]4NC(=O)N[C@@H]43)C(N)=O)cc2)c1 [SV1]
- cleavage into the two aniline fragments 3 and 4 [1]: full cleavage
- Number of Identified peptides (Cathepsin B): 2
- Sequence coverage (Cathepsin B): 8%
- Number of Identified peptides (Cathepsin C): 3
- Sequence coverage (Cathepsin C): 16%
- Number of Identified peptides (Cathepsin H): 5
- Sequence coverage (Cathepsin H): 29%
- Number of Identified peptides (Cathepsin Z): 4
- Sequence coverage (Cathepsin Z): 32%
